Experimental data reported in patent US12459951B2, “Compounds that interact with RAS superfamily proteins for treatment of cancers, inflammatory diseases, rasopathies, and fibrotic disease” (SHY Therapeutics, LLC, priority 2022, dated 2025).

Legend:
Experiment in all cases: Proliferation Assay (Cell Viability Assay)
Format in all cases: cell-based
[1] = tested on: Panc-1 (expressing KRas G12D mutant); details: Homo sapiens, Panc1, pancreatic
Experimental: (§1) Cell lines: Human tumor-derived cell lines were purchased from American Type Culture Collection. Human tumor-derived pancreatic cancer cell line MiaPaca-2 (expressing KRAS G12C mutant) and Panc-1 (expressing KRas G12D mutant), and Human non-small cell lung cancer (NSCLC) cell line A549 (expressing KRas G12S mutant) were grown in complete DMEM-High Glucose medium. Human colon cancer cell line SW-620 (expressing KRas G12V mutant) was grown in RPMI 1640 medium. All cell lines were supplemented with penicillin (100 U/mL), streptomycin (100 μg/mL), and 10% heat-inactivated FBS at 37° C. in a humidified incubator with 5% CO2.
(§2) Method: Cells were plated at 2000 to 5000 cells/well density in 96-wells plate and cultured overnight. Small molecules to be tested were added to the cells in the final concentration of 10 μM in the presence of 0.3% DMSO and 10% FBS and incubated for 2-4 days at 37° C. in a humidified incubator with 5% CO2. For IC50 value determination, serial dilutions of compounds were added to cells under the same conditions.
(§3) Assay: At the end of the incubation period, cell viability was determined using the CellTiter 96® Aqueous One Solution Cell Proliferation Assay according to manufacturer specifications (Promega, Madison, WI). The percentage of small molecules inhibition of cellular proliferation was calculated from raw data.
(§4) Cell lines: these Human tumor-derived cell lines were purchased from American Type Culture Collection. Human tumor-derived pancreatic cancer cell line MiaPaca-2 (expressing KRAS G12C mutant) and Panc-1 (expressing KRas G12D mutant), and Human non-small cell lung cancer (NSCLC) cell line A549 (expressing KRas G12S mutant), and Human melanoma cell line A375 (wild type Kras) were grown in complete DMEM-High Glucose medium. Human tumor-derived pancreatic cancer cell lines SU86.86 (expressing KRas G12D mutant), BxPC3 (expressing wild type K-Ras), and Human non-small cell lung cancer (NSCLC) cell lines NCI-H441 (expressing KRas G12S mutant), NCI-H1975 (expressing wild type KRas), NCI-H358 (expressing KRas G12C mutant), NCI-H1299 (expressing NRas Q61H mutant), and Human colon cancer cell line SW-620 (expressing KRas G12V mutant), Human triple negative breast cancer cell line HCC-1806 (expressing wild type KRas), and Human tumor-derived multiple myeloma cell line MM.1R (expressing wild type KRAS), were grown in RPMI 1640 medium. Human tumor-derived breast cancer cell line BT-549 (expressing wild type KRAS) was grown in RPMI 1640 medium in the presence of 11.8U insulin. Human tumor-derived pancreatic cancer cell line HPAF-II (expressing KRas G12D mutant), Human triple negative breast cancer cell line BT-20 (expressing wild type KRas), and Human colon cancer cell line LS123 (expressing KRas G12S mutant), were grown in EMEM medium. Human tumor-derived pancreatic cancer cell line CF-PAC1 (expressing KRas G12V mutant) was frown in IMDM medium, and Human colon cancer cell line HT29 (expressing wild type KRas) was grown in McCoy's 5A medium. The colon cancer cell line GP2d (expressing KRas G12D mutant) was purchased from MilliporeSigma and grown in DMEM-High Glucose medium. All cell lines were supplemented with penicillin (100 U/mL), streptomycin (100 μg/mL), and 10% heat-inactivated FBS at 37° C. in a humidified incubator with 5% CO2.
as §2, with “that were” for “to be”, “FBS,” for “FBS”

[2] = tested on: A549 (expressing KRas G12S mutant); details: Homo sapiens, A549, NSCLC
Experimental: as §1, §2, §3, §4
as §2, with “that were” for “to be”, “FBS,” for “FBS”

[3] = tested on: SW-620 (expressing KRas G12V mutant); details: Homo sapiens, SW-620, colon
Experimental: as §1, §2, §3, §4
as §2, with “that were” for “to be”, “FBS,” for “FBS”

[4] = tested on: HPAF-II (expressing KRas G12D mutant); details: Homo sapiens, pancreatic
Procedure, shortened: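 Cells (2000–5000/well; CF-PAC1 in IMDM, HPAF-II in EMEM, NCI-H441 and NCI-H1299 in RPMI 1640) were plated overnight, then exposed to compounds at 10 μM or in serial dilutions for IC50 with 0.3% DMSO and 10% FBS for 2–4 days at 37 °C. Viability was read with CellTiter 96 Aqueous One, and percent inhibition was calculated.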

[5] = tested on: BT-20 (expressing wild type KRas); details: Homo sapiens; BT-20, Breast (TNBC), KRas WT
Procedure, shortened: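 Cells plated at 2000–5000/well overnight, then treated 2–4 days at 37 °C, 5% CO2 with compound at 10 μM single dose or serial dilutions for IC50, in 0.3% DMSO and 10% FBS. Viability read by CellTiter 96 Aqueous One (MTS); % proliferation inhibition calculated from raw data.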

Measured: IC50

COc1ccnc(Nc2nc(-c3nccn3C)nn3cc(-c4ccn(C(C)C)n4)c(C)c23)c1 [Compound 58, 6-(1-Isopropyl-1H-pyrazol-3-yl)-N-(4-methoxypyridin-2-yl)-5-methyl-2-(1-methyl-1H-imidazol-2-yl)pyrrolo[2,1-f][1,2,4]triazin-4-amine]
< 150 nM: all assays above
